Read-outs that look alike come from different tables or passages of the source.
Legend:
SREBP-1 [1] = settings: HepG2 cells treated with T0901317; nuclear fraction; FIG. 5B
[2] = Procedure: (§1) Male C57BL/6 mice (average weight of 25 to 30 g) as test animals were purchased from Charles River Orient (Seoul, Korea). For at least one week before being tested, the mice were acclimatized to the surrounding environment in the animal test research center of the College of Pharmacy, Seoul National University, that is, humidity of 55±5%, temperature of 22±2° C., and controlled ventilation. The mice were repeatedly and alternately exposed to light and then placed in the dark for a time interval of 12 hours (from 7 A.M. to 7 P.M). […] The weight and state of the mice were measured once a week. Two groups of mice were respectively raised with a high lipid diet (Dyets Inc., Bethlehem) and a normal diet for 10 weeks. For the last four weeks in each case, oltipraz (10 or 30 mg/kg, 3 times/week) was administered to the mice (FIG. 1). Each group consisted of a total of 10 mice.
SREBP-1 [3] = settings: HepG2 cells, FIG. 5A
SREBP-1 [4] = settings: rat primary cultured liver cells, FIG. 5A
FAS = settings: high lipid diet 10 weeks; oltipraz 10-30 mg/kg, 3 times/week, last four weeks; p<0.01; FIG. 9
Procedure: as §1
(§2) Total RNA (2 μg) and d(T)16 primer which were extracted from the liver of mice, and an AMV reverse transcriptase were used to obtain cDNA. The relative amounts of genes were quantified by realtime RT-PCR using a CyBr green dye. The realtime RT-PCR was Light-cycler^2.0 produced by Roche (Mannheim, Germany).

SREBP-1 [5] = settings: high lipid diet 10 weeks; oltipraz 10-30 mg/kg, 3 times/week, last four weeks; p<0.01; FIG. 4
Procedure: as §1, §2

ACC = settings: high lipid diet 10 weeks; oltipraz 10-30 mg/kg, 3 times/week, last four weeks; p<0.01; FIG. 9
Procedure: as §1, §2

LXRα = settings: high lipid diet 10 weeks; oltipraz 10-30 mg/kg, 3 times/week, last four weeks; p<0.01; FIG. 2
Procedure: as §1, §2

LXRα/RXRα complex = LXRα/RXRα complex (Homo sapiens, UniProt Q13133); settings: LXRα and RXRα overexpressed; nuclear fraction; FIG. 3B
Chain of LXRα/RXRα complex (Q13133 whole entry, one chain of several): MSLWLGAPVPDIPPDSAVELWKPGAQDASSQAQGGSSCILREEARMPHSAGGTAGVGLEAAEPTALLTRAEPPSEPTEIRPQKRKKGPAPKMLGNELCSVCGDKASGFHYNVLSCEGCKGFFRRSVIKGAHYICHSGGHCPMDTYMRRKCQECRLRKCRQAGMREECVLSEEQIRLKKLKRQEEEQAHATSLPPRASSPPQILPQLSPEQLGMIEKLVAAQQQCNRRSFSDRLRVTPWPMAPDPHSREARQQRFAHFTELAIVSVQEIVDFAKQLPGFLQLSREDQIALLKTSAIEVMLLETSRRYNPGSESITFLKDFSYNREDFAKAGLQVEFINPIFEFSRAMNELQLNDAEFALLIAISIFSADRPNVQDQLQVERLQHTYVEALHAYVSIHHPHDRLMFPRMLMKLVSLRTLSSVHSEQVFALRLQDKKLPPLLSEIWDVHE
Procedure: Whether a binding capability of LXRE is changed by oltipraz treatment was identified by gel-shift assay. LXRE double-stranded oligonucleotide of a SREBP-1c gene was labeled with a radio active isotope at 5′-terminal by using [γ-^32P]ATP and T4 polynucleotide kinase, and then the labeled probe (1 ml, >10^6 cpm) was reacted with nuclear fraction proteins in a binding buffer solution. The reaction solution was subjected to electrophoresis in 4% polyacrylamide gel and then assayed by autoradiography. […] DNA binding specificity was identified by cold probe titration and supershift assay. For the cold probe titration, 20 times greater (molar base) un-labeled oligonucleotides were reacted in advance.

SREBP-1 [6] = settings: H4IIE cells, FIG. 5A
[7] = whole cell extract, co-treated with T0901317
[8] = within 12 hours after treatment

Compound | increased nuclear localization of SREBP-1 (SREBP-1 [1]) | red part dyed with Oil-Red-O in liver tissue ([2]; HFD+Oltipraz versus HFD+vehicle, FIG. 11) | amount of triglyceride in liver tissues ([2]; high lipid diet 10 weeks, oltipraz administered, p<0.01, FIG. 10) | T0901317-increased expression of SREBP-1 protein (SREBP-1 [3]; [7]) | T0901317-increased expression of SREBP-1 protein (SREBP-1 [4]; [7]) | increase in FAS expression (mRNA, relative to normal diet group) (FAS) | increase in SREBP-1 expression (mRNA, relative to normal diet group) (SREBP-1 [5]) | increase in ACC expression (mRNA, relative to normal diet group) (ACC) | increase in LXRα expression (mRNA, relative to normal diet group) (LXRα) | binding capability of LXRα with respect to DNA (LXRE) (LXRα/RXRα complex) | T0901317-increased expression of SREBP-1 protein (SREBP-1 [6]; whole cell extract, co-treated with T0901317, FIGS. 6-8) | expression of SREBP-1 protein after LXRα activator alone (SREBP-1 [3]; [8]) | expression of SREBP-1 protein after LXRα activator alone (SREBP-1 [4]; [8]) | expression of SREBP-1 protein after LXRα activator alone (SREBP-1 [6]; [8])
Cc1c(-c2cnccn2)ssc1=S [oltipraz, 4-methyl-5-(2-pyrazinyl)-1,2-dithiol-3-thione] | concentration-dependently reduced | remarkably reduced | significantly reduced | concentration-dependently reduced | concentration-dependently reduced | inhibited | inhibited | inhibited | inhibited | substantially decreased | concentration-dependently reduced | – | – | –
O=S(=O)(c1ccccc1)N(CC(F)(F)F)c1ccc(C(O)(C(F)(F)F)C(F)(F)F)cc1 [compound 10901317] | – | – | – | – | – | – | – | – | – | – | – | remarkably increased | remarkably increased | remarkably increased

From US9370504B2, “Pharmaceutical composition containing 1,2-dithiolthione derivative for preventing or treating disease caused by overexpression of LXR-α” (SNU R&DB FOUNDATION, priority 2008, dated 2016)
